Results on 15 compounds are retold here after patent US8859569B2, “Substituted annellated pyrimidines and use thereof” (Bayer Pharma Aktiengesellschaft, priority 2011, dated 2014).

One test relates to aorta rings. The experiment in a line: Vessel-relaxing action in vitro (aorta rings, phenylephrine contraction). As to conditions: concentration required to reduce phenylephrine-induced contraction of rabbit aorta rings by 50%. An outline of the steps:
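Rabbit aortic rings 1.5 mm wide were held under preload in carbogen-gassed Krebs-Henseleit at 37 °C and contracted with cumulative phenylephrine. Test substance was added in rising doses on successive passes, each compared with the preceding control contraction. IC50 is the concentration that halves contraction, with 0.1% DMSO in the bath.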

Test [1] concerns the target T1, recombinant guanylate cyclase reporter cell line (Rattus norvegicus, UniProt P19686+P20595).
T1 construct: expressed in transfected cells
T1 sequence (P20595 1-619): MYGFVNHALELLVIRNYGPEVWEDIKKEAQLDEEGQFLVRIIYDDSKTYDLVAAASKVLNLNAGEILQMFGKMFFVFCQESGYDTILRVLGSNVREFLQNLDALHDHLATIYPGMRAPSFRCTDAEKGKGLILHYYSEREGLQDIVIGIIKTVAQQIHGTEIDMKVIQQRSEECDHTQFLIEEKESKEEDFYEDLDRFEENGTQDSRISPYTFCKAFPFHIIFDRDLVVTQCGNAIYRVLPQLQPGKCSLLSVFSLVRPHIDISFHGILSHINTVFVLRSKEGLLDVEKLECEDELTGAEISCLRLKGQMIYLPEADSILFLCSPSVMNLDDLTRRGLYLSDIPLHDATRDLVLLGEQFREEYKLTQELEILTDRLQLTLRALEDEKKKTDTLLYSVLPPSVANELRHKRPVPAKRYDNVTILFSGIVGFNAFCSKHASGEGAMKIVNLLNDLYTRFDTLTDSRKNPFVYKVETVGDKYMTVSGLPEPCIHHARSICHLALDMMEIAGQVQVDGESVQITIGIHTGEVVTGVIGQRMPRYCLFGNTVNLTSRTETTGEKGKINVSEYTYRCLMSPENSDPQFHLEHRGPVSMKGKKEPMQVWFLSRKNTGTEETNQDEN
T1 sequence (P19686 1-690): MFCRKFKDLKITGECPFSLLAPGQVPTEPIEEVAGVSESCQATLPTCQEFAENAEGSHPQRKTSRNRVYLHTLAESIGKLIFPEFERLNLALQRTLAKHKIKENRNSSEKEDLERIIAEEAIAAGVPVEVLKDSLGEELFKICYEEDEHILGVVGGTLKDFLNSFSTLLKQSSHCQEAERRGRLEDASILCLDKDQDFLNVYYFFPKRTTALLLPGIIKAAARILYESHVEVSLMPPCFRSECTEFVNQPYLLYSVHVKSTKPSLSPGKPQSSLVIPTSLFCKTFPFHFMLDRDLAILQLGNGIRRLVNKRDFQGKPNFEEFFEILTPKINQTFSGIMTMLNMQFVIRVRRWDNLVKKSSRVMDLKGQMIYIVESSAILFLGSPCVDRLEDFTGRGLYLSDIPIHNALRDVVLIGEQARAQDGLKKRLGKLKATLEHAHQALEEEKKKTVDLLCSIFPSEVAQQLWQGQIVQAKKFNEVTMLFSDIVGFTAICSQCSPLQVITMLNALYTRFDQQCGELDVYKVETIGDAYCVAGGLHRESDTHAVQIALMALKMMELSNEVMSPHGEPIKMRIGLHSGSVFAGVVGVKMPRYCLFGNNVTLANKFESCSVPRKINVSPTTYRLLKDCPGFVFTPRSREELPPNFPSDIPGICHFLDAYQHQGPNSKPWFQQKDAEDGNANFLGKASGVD
Description: Action on recombinant guanylate cyclase reporter cell line. It counts as cell-based. On the procedure:
B-2. Action on Recombinant Guanylate Cyclase Reporter Cell Line
The cellular action of the compounds according to the invention is determined on a recombinant guanylate cyclase reporter cell line, as described in F. Wunder et al., Anal. Biochem. 339, 104-112 (2005).

In test [2] the target is T2, human phosphodiesterase 5 (PDE-5) (Homo sapiens, UniProt O76074).
T2 construct: PDE-5 preparations are obtained from human platelets by lysis; from tissue; host or cells: human platelets
Description: Inhibition of human phosphodiesterase 5 (PDE-5), SPA assay. It counts as biochemical. The settings on record: PDE-5 preparation from human platelets, [8-3H]cGMP substrate. In a few lines: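 PDE-5 partially purified from human platelets by Mono Q chromatography, diluted so under 70% of [8-3H]cGMP (0.025 μCi) converted. Compounds at 4 μM to 0.0018 μM final, Tris-HCl pH 7.5 with MgCl2, 60 min at room temperature. Yttrium SPA beads stop reaction; IC50 from concentration–inhibition plots.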

For orientation: IC50 means the concentration at which inhibition is half-maximal. Read a high IC50 as lower potency. Regarding `CC1(C)C(=O)Nc2nc(-c3nn(Cc4ccccc4F)c4ncc(F)cc34)nc(NCC(O)C(F)(F)F)c21` (single isomer, unassigned) [Example 96-2, 2-[5-Fluoro-1-(2-fluorobenzyl)-1H-pyrazolo[3,4-b]pyridin-3-yl]-5,5-dimethyl-4-[(3,3,3-trifluoro-2-hydroxypropyl)amino]-5,7-dihydro-6H-pyrrolo[2,3-d]pyrimidin-6-one], the IC50 in the test with aorta rings worked out at 601 nM; in test [2], 26 nM. The “MEC (minimal effective concentration)” value in test [1] turned out to be 0.01 μm.

Regarding `CCOc1nc(-c2nn(Cc3ccccc3F)c3ncccc23)nc2c1C(C)(C)C(=O)N2` [Example 112, 4-Ethoxy-2-[1-(2-fluorobenzyl)-1H-pyrazolo[3,4-b]pyridin-3-yl]-5,5-dimethyl-5,7-dihydro-6H-pyrrolo[2,3-d]pyrimidin-6-one], the values for the IC50 (in the test on aorta rings (Oryctolagus cuniculus); in test [2]) were 1620 nM and 210 nM, respectively. The “MEC (minimal effective concentration)” value in test [1] was found to be 0.1 μm.

Turning to `CC1(C)C(=O)Nc2nc(-c3nn(Cc4ccccc4F)c4ncc(F)cc34)nc(O)c21` [Example 102, 2-[5-Fluoro-1-(2-fluorobenzyl)-1H-pyrazolo[3,4-b]pyridin-3-yl]-4-hydroxy-5,5-dimethyl-5,7-dihydro-6H-pyrrolo[2,3-d]pyrimidin-6-one], the results for the IC50 (in the test on aorta rings (Oryctolagus cuniculus); in test [2]) were 156 nM and 74 nM, respectively. Further, in test [1], the “MEC (minimal effective concentration)” value was found to be 1 μm.

For the compound `CC(C)(O)CNc1nc(-c2nn(Cc3ccccc3F)c3ncc(F)cc23)nc2c1C(C)(C)C(=O)N2` [Example 4, 2-[5-Fluoro-1-(2-fluorobenzyl)-1H-pyrazolo[3,4-b]pyridin-3-yl]-4-[(2-hydroxy-2-methylpropyl)amino]-5,5-dimethyl-5,7-dihydro-6H-pyrrolo[2,3-d]pyrimidin-6-one], the IC50 with aorta rings (Oryctolagus cuniculus) worked out at 62 nM; in test [2], 6 nM. Further, the “MEC (minimal effective concentration)” value in test [1] was 0.1 μm.

Regarding `CC1(C)C(=O)Nc2nc(-c3nn(Cc4ccccc4F)c4ncccc34)nc(N[C@H]3CC[C@H](O)CC3)c21` [Example 95, 2-[1-(2-Fluorobenzyl)-1H-pyrazolo[3,4-b]pyridin-3-yl]-4-[(trans-4-hydroxycyclohexyl)amino]-5,5-dimethyl-5,7-dihydro-6H-pyrrolo[2,3-d]pyrimidin-6-one], the figures for the half-maximal inhibitory concentration (IC50) (in the test with aorta rings (Oryctolagus cuniculus); in test [2]) were 228 nM and 4 nM, respectively. In test [1], the “MEC (minimal effective concentration)” value turned out to be 0.1 μm.

Consider `CCN1CCN(c2nc(-c3nn(Cc4ccccc4F)c4ncccc34)nc3c2C(C)(C)C(=O)N3)C1=O` [Example 21, 4-(3-Ethyl-2-oxoimidazolidin-1-yl)-2-[1-(2-fluorobenzyl)-1H-pyrazolo[3,4-b]pyridin-3-yl]-5,5-dimethyl-5,7-dihydro-6H-pyrrolo[2,3-d]pyrimidin-6-one], for which the IC50 with aorta rings (Oryctolagus cuniculus) came to 100 nM; in test [2] it was 400 nM. Moreover, the “MEC (minimal effective concentration)” value in test [1] is given as 0.03 μm.

`O=C1Nc2nc(-c3nn(Cc4ccccc4F)c4ncc(F)cc34)nc(NCCC(F)(F)F)c2C12CCOC2` (stereo not drawn) [Example 100, 2′-[5-Fluoro-1-(2-fluorobenzyl)-1H-pyrazolo[3,4-b]pyridin-3-yl]-4′-[(3,3,3-trifluoropropyl)amino]-4,5-dihydrospiro[furan-3,5′-pyrrolo[2,3-d]pyrimidin]-6′(7′H)-one]: the IC50 in the test on aorta rings (Oryctolagus cuniculus) amounted to 4760 nM; in test [2], 2800 nM. Further, the “MEC (minimal effective concentration)” value in test [1] came out at 0.3 μm.

`CC1(C)C(=O)Nc2nc(-c3nn(Cc4ccccc4F)c4ncc(F)cc34)nc(N3CC(F)C3)c21` [Example 8, 4-(3-Fluoroazetidin-1-yl)-2-[5-fluoro-1-(2-fluorobenzyl)-1H-pyrazolo[3,4-b]pyridin-3-yl]-5,5-dimethyl-5,7-dihydro-6H-pyrrolo[2,3-d]pyrimidin-6-one]: the results for the IC50 (with aorta rings (Oryctolagus cuniculus); in test [2]) were 309 nM and 400 nM, respectively. For the same compound, in test [1], the “MEC (minimal effective concentration)” value stood at 0.3 μm.

Turning to `CC1(C)C(=O)Nc2nc(-c3nn(Cc4ccccc4F)c4ncc(F)cc34)nc(NCCC(F)(F)F)c21` [Example 5, 2-[5-Fluoro-1-(2-fluorobenzyl)-1H-pyrazolo[3,4-b]pyridin-3-yl]-5,5-dimethyl-4-[(3,3,3-trifluoropropyl)amino]-5,7-dihydro-6H-pyrrolo[2,3-d]pyrimidin-6-one], the IC50 in the test with aorta rings (Oryctolagus cuniculus) was determined as 285 nM; in test [2] it was 130 nM. In test [1], the “MEC (minimal effective concentration)” value was 0.03 μm.

Consider `CC1(C)C(=O)Nc2nc(-c3nn(Cc4ccccc4F)c4ncc(F)cc34)nc(N3CC(O)C3)c21` [Example 104, 2-[5-Fluoro-1-(2-fluorobenzyl)-1H-pyrazolo[3,4-b]pyridin-3-yl]-4-(3-hydroxyazetidin-1-yl)-5,5-dimethyl-5,7-dihydro-6H-pyrrolo[2,3-d]pyrimidin-6-one], for which the values for the IC50 (in the test on aorta rings (Oryctolagus cuniculus); in test [2]) were 482 nM and 80 nM, respectively. In addition, in test [1], the “MEC (minimal effective concentration)” value was determined as 0.1 μm.

For the compound `CC1(C)C(=O)Nc2nc(-c3nn(Cc4ccccc4F)c4ncccc34)nc(N3CC(N4CCCC4)C3)c21` [Example 105, 2-[1-(2-Fluorobenzyl)-1H-pyrazolo[3,4-b]pyridin-3-yl]-5,5-dimethyl-4-[3-(pyrrolidin-1-yl)azetidin-1-yl]-5,7-dihydro-6H-pyrrolo[2,3-d]pyrimidin-6-one], the figures for the IC50 (in the test with aorta rings (Oryctolagus cuniculus); in test [2]) were 478 nM and 980 nM, respectively. In test [1], the “MEC (minimal effective concentration)” value is on record as 0.3 μm.

Turning to `CC1(C)C(=O)Nc2nc(-c3nn(Cc4ccccc4F)c4ncc(F)cc34)nc(NCC(F)F)c21` [Example 7, 4-[(2,2-Difluoroethyl)amino]-2-[5-fluoro-1-(2-fluorobenzyl)-1H-pyrazolo[3,4-b]pyridin-3-yl]-5,5-dimethyl-5,7-dihydro-6H-pyrrolo[2,3-d]pyrimidin-6-one], the IC50 amounted to 200 nM in the test with aorta rings (Oryctolagus cuniculus) and 110 nM in test [2]. The “MEC (minimal effective concentration)” value in test [1] is on record as 0.1 μm.

With `CC1(C)C(=O)Nc2nc(-c3nn(Cc4ccccc4F)c4ncc(F)cc34)nc(NCC3CC3(F)F)c21` (stereo not drawn) [Example 97, 4-{[(2,2-Difluorocyclopropyl)methyl]amino}-2-[5-fluoro-1-(2-fluorobenzyl)-1H-pyrazolo[3,4-b]pyridin-3-yl]-5,5-dimethyl-5,7-dihydro-6H-pyrrolo[2,3-d]pyrimidin-6-one], the IC50 was found to be 1350 nM in the test with aorta rings (Oryctolagus cuniculus) and 63 nM in test [2]. The “MEC (minimal effective concentration)” value in test [1] was determined as 0.1 μm.

In the case of `Cc1ncc2c(-c3nc(NCCC(F)(F)F)c4c(n3)NC(=O)C4(C)C)nn(Cc3ccccc3F)c2n1` [Example 108, 2-[1-(2-Fluorobenzyl)-6-methyl-1H-pyrazolo[3,4-d]pyrimidin-3-yl]-5,5-dimethyl-4-[(3,3,3-trifluoropropyl)amino]-5,7-dihydro-6H-pyrrolo[2,3-d]pyrimidin-6-one], the values for the IC50 (in the test with aorta rings (Oryctolagus cuniculus); in test [2]) were 444 nM and 25 nM, respectively. Moreover, the “MEC (minimal effective concentration)” value in test [1] worked out at 0.3 μm.

Take `CC1(C)C(=O)Nc2nc(-n3nc(Cc4ccccc4F)c4ccccc43)nc(NCC3CC3)c21` [Example 36]: the IC50 in the test on aorta rings (Oryctolagus cuniculus) is 5490 nM; in test [2], 89 nM. Also, the “MEC (minimal effective concentration)” value in test [1] turned out to be 0.3 μm.
